In this test the test system is P388 leukemia ip, CD2F1 mice, survival T/C. Nature of the test: NCI In Vivo Anticancer Drug Screen. Data for tumor model P388 Leukemia (intraperitoneal) in CD2F1 (CDF1) mice. The conditions noted are these: endpoint: median survival time, higher = longer survival. Put shortly: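 Mice carrying the transplanted tumor received test compound or vehicle. Survival was recorded in each group, and the value is the treated-group measurement divided by that of the vehicle-treated control group.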

[1] abbreviates: dose: 50.0 mg/kg/injection, schedule: Q01DX005 (ip), vehicle: Klucel (hydroxypropylcellulose) (HPC).
Where [2] appears, read: dose: 100.0 mg/kg/injection, schedule: Q01DX005 (ip), vehicle: Klucel (hydroxypropylcellulose) (HPC).
Where [3] appears, read: dose: 200.0 mg/kg/injection, schedule: Q01DX005 (ip), vehicle: Klucel (hydroxypropylcellulose) (HPC).

Values joined by “and” are separate entries in the source; they are usually repeats but may differ in a detail not shown here. Equal values may be shown once. Inconclusive results and toxic doses are left out.

As to `CCN(CC)CCNc1ccc(C)c2sc3ccccc3c(=O)c12`, the T/C by setting is: (dose: 6.25 mg/kg/injection, schedule: Q01DX005 (ip), vehicle: distilled water + Tween-80) 100 % of control and 106 % of control; (dose: 6.25 mg/kg/injection, schedule: Q01DX009 (ip), vehicle: water) 100 % of control; (dose: 7.8 mg/kg/injection, schedule: Q01DX005 (ip), vehicle: saline) 109 % of control; (dose: 12.5 mg/kg/injection, schedule: Q01DX005 (ip), vehicle: distilled water + Tween-80) 101 % of control and 104 % of control and 107 % of control; (dose: 12.5 mg/kg/injection, schedule: Q01DX009 (ip), vehicle: water) 99 % of control; (dose: 13.0 mg/kg/injection, schedule: Q01DX005 (ip), vehicle: water) 120 % of control. Besides, the T/C reads like this: (dose: 15.6 mg/kg/injection, schedule: Q01DX005 (ip), vehicle: saline) 113 % of control; (dose: 16.2 mg/kg/injection, schedule: Q01DX005 (ip), vehicle: saline) 107 % of control and 108 % of control; (dose: 16.2 mg/kg/injection, schedule: Q01DX005 (ip), vehicle: water) 107 % of control; (dose: 19.4 mg/kg/injection, schedule: Q01DX005 (ip), vehicle: saline) 102 % of control; (dose: 19.4 mg/kg/injection, schedule: Q01DX005 (ip), vehicle: water) 109 % of control; (dose: 19.44 mg/kg/injection, schedule: Q01DX005 (ip), vehicle: saline) 114 % of control. Also, the T/C (dose: 21.6 mg/kg/injection, schedule: Q01DX005 (ip), vehicle: water) was 117 % of control; the T/C (dose: 25.0 mg/kg/injection, schedule: Q01DX005 (ip), vehicle: saline with Tween-80) was 114 % of control; the T/C (dose: 25.0 mg/kg/injection, schedule: Q01DX009 (ip), vehicle: water) was 100 % of control; the T/C (dose: 27.0 mg/kg/injection, schedule: Q01DX005 (ip), vehicle: saline) is 114 % of control; the T/C (dose: 27.0 mg/kg/injection, schedule: Q01DX005 (ip), vehicle: water) is 118 % of control; the T/C (dose: 32.4 mg/kg/injection, schedule: Q01DX005 (ip), vehicle: saline) was 111 % of control. Also, the T/C (dose: 32.4 mg/kg/injection, schedule: Q01DX005 (ip), vehicle: water) is 119 % of control; the T/C (dose: 38.9 mg/kg/injection, schedule: Q04DX003 (ip), vehicle: saline) is 119 % of control; the T/C (dose: 45.0 mg/kg/injection, schedule: Q01DX005 (ip), vehicle: saline) was 124 % of control; the T/C (dose: 50.0 mg/kg/injection, schedule: Q01DX009 (ip), vehicle: water) was 115 % of control; the T/C (dose: 54.0 mg/kg/injection, schedule: Q01DX005 (ip), vehicle: saline) was 152 % of control; the T/C (dose: 54.0 mg/kg/injection, schedule: Q01DX005 (ip), vehicle: water) was 123 % of control. The T/C is 181 % of control (dose: 62.5 mg/kg/injection, schedule: Q01DX005 (ip), vehicle: saline); 156 % of control (dose: 75.0 mg/kg/injection, schedule: Q01DX005 (ip), vehicle: saline); 151 % of control (dose: 75.0 mg/kg/injection, schedule: Q01DX005 (ip), vehicle: water); 156 % of control (dose: 80.0 mg/kg/injection, schedule: Q01DX005 (ip), vehicle: water); 154 % of control (dose: 90.0 mg/kg/injection, schedule: Q01DX005 (ip), vehicle: saline); 166 % of control and 168 % of control (dose: 125.0 mg/kg/injection, schedule: Q01DX005 (ip), vehicle: saline). For the setting “dose: 180.0 mg/kg/injection, schedule: Q04DX003 (ip), vehicle: saline”, the T/C is 168 % of control.
With `COc1cc2c(cc1O)CCCC=C2C1CCCCc2cc(O)c(OC)cc21` (centres undefined), the T/C runs as follows: (dose: 100.0 mg/kg/injection, schedule: Q01DX009 (ip), vehicle: saline with Tween-80) 104 % of control; (dose: 200.0 mg/kg/injection, schedule: Q01DX009 (ip), vehicle: saline with Tween-80) 94 % of control; (dose: 400.0 mg/kg/injection, schedule: Q01DX009 (ip), vehicle: saline with Tween-80) 91 % of control.
`COc1ccc(Cc2ccc3c(c2)OCO3)cc1C`: the T/C is 104 % of control (dose: 50.0 mg/kg/injection, schedule: Q01DX005 (ip), vehicle: saline); 104 % of control (dose: 100.0 mg/kg/injection, schedule: Q01DX005 (ip), vehicle: saline); 111 % of control (dose: 200.0 mg/kg/injection, schedule: Q01DX005 (ip), vehicle: saline).
For `CCn1c(=O)c2[nH]c(Br)nc2n(CC)c1=O`, the T/C is, setting by setting: (dose: 12.5 mg/kg/injection, schedule: Q01DX009 (ip), vehicle: Klucel (hydroxypropylcellulose) (HPC)) 124 % of control; (dose: 16.0 mg/kg/injection, schedule: Q01DX009 (ip), vehicle: Klucel (hydroxypropylcellulose) (HPC)) 106 % of control; (dose: 25.0 mg/kg/injection, schedule: Q01DX009 (ip), vehicle: Klucel (hydroxypropylcellulose) (HPC)) 103 % of control and 97 % of control; (dose: 32.0 mg/kg/injection, schedule: Q01DX009 (ip), vehicle: Klucel (hydroxypropylcellulose) (HPC)) 104 % of control; (dose: 50.0 mg/kg/injection, schedule: Q01DX009 (ip), vehicle: Klucel (hydroxypropylcellulose) (HPC)) 105 % of control and 95 % of control; (dose: 64.0 mg/kg/injection, schedule: Q01DX009 (ip), vehicle: Klucel (hydroxypropylcellulose) (HPC)) 114 % of control. Moreover, where the note is “dose: 100.0 mg/kg/injection, schedule: Q01DX009 (ip), vehicle: Klucel (hydroxypropylcellulose) (HPC)”, the T/C was 98 % of control and 103 % of control.
`CCOC(=O)C1=C(c2ccccc2)OC(N)=C(C#N)C1c1ccccc1Cl` (centres undefined): the T/C under setting [1] was 96 % of control, the T/C under setting [2] was 105 % of control and the T/C under setting [3] was 107 % of control.
In the case of `CC(C)(C)c1cccc(C2(C)C(=O)c3ccccc3C2=O)c1`, the T/C is 102 % of control (dose: 100.0 mg/kg/injection, schedule: Q04DX002 (ip), vehicle: saline); 101 % of control (dose: 200.0 mg/kg/injection, schedule: Q04DX002 (ip), vehicle: saline); 100 % of control (dose: 400.0 mg/kg/injection, schedule: Q04DX002 (ip), vehicle: saline).
As to `C=C1C(=O)OC2CCCCC12` (centres undefined), the T/C was 104 % of control (dose: 50.0 mg/kg/injection, schedule: Q04DX003 (ip), vehicle: Klucel (hydroxypropylcellulose) (HPC)); 105 % of control (dose: 100.0 mg/kg/injection, schedule: Q04DX003 (ip), vehicle: Klucel (hydroxypropylcellulose) (HPC)); 101 % of control (dose: 200.0 mg/kg/injection, schedule: Q04DX003 (ip), vehicle: Klucel (hydroxypropylcellulose) (HPC)).
`CC(=O)NS(=O)(=O)c1ccc(N=NC2=C(O)C(c3ccccc3)N(c3ccccc3)C2=O)cc1` (centres undefined): the T/C runs as follows: (dose: 60.0 mg/kg/injection, schedule: Q01DX005 (ip), vehicle: saline with Tween-80) 96 % of control; (dose: 120.0 mg/kg/injection, schedule: Q01DX005 (ip), vehicle: saline with Tween-80) 91 % of control.
For `COc1cc2c(cc1OC)C1C(C)c3ccc(OC)c(OC)c3CN1CC2` (centres undefined), the T/C by setting is: (dose: 12.5 mg/kg/injection, schedule: Q01DX009 (ip), vehicle: saline) 88 % of control; (dose: 25.0 mg/kg/injection, schedule: Q01DX009 (ip), vehicle: saline) 104 % of control; (dose: 50.0 mg/kg/injection, schedule: Q01DX009 (ip), vehicle: saline) 107 % of control; (dose: 50.0 mg/kg/injection, schedule: Q04DX003 (ip), vehicle: distilled water + Tween-80) 93 % of control; (dose: 100.0 mg/kg/injection, schedule: Q04DX003 (ip), vehicle: distilled water + Tween-80) 87 % of control; (dose: 200.0 mg/kg/injection, schedule: Q04DX003 (ip), vehicle: distilled water + Tween-80) 87 % of control. The T/C (dose: 400.0 mg/kg/injection, schedule: Q01DX009 (ip), vehicle: saline) was 94 % of control and the T/C (dose: 400.0 mg/kg/injection, schedule: Q04DX003 (ip), vehicle: distilled water + Tween-80) is 91 % of control.
Turning to `CCCCNC1=CC(=O)C(NCCCC)=CC1=O`, the T/C is, setting by setting: under setting [1], 100 % of control; under setting [2], 101 % of control; under setting [3], 98 % of control.
With `CCN(CC)Cc1cc(C)c(O)c(N=Nc2cccc3ccccc23)c1C`, the T/C runs as follows: (dose: 100.0 mg/kg/injection, schedule: Q04DX002 (ip), vehicle: saline with Tween-80) 86 % of control; (dose: 200.0 mg/kg/injection, schedule: Q04DX002 (ip), vehicle: saline with Tween-80) 91 % of control; (dose: 400.0 mg/kg/injection, schedule: Q04DX002 (ip), vehicle: saline with Tween-80) 109 % of control.

Values taken from PubChem BioAssay AID330 (DTP/NCI, 2004).
